Type in all cases: cell-based
For one experiment, the system named is SW480 (colon cancer). In words: Antiproliferative activity (CCK-8 cell viability), SW480. To be noted: Homo sapiens, 72 h; for inhibition at 3.3 µM: Compound concentration: 3.3 μM; for inhibition at 3.3 µM / inhibition at 10 µM: read-out: Antiproliferative activity in cancerous cells, SW480 (inhibition of cell growth); for inhibition at 10 µM: Compound concentration: 10 μM. In outline: (§1)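 Cells were seeded at 2,000-5,000/well (HeLa in MEM, HepG2 and SW480 in DMEM, A549 in F-12K, all with 10% FBS) and treated with compound at 3.3, 10 or 30 μM for 72 h at 37° C. CCK-8 was added for 4 h, absorbance was read at 450 nm, and viability was expressed relative to DMSO-treated wells.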

The subject of experiment [1] is B16F10 (malignant melanoma). In words: Antiproliferative activity (CCK-8 cell viability), B16F10. To be noted: Mus musculus, 72 h, read-out: Antiproliferative activity in cancerous cells, B16F10 (inhibition of cell growth); for inhibition at 3.3 µM: B16-F10, Compound concentration: 3.3 μM; for inhibition at 10 µM: B16-F10, Compound concentration: 10 μM. An outline of the steps: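 Attached B16F10 cells in 96-well plates were incubated with compound at 37° C for 72 h, followed by 10 μL CCK-8 reagent per well and a further 4 h incubation. A multi-well plate reader measured absorbance at 450 nm. Percent viability across replicates was calculated against DMSO vehicle-treated cells.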

Experiment [2] has as its system A431 (epidermoid carcinoma). Nature of the experiment: Antiproliferative activity (CCK-8 cell viability), A431. To be noted: Homo sapiens, 72 h, read-out: Antiproliferative activity in cancerous cells, A431 (inhibition of cell growth); for inhibition at 3.3 µM: A-431, Compound concentration: 3.3 μM; for inhibition at 10 µM: A-431, Compound concentration: 10 μM. An outline of the steps:
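Cell viability of compound-treated A431 cells was measured with a Cell Counting Kit-8. Each well received 10 μL of CCK-8 after 72 h of compound exposure, followed by 4 h incubation at 37° C. and a 450 nm plate-reader measurement. Percent viability was calculated relative to DMSO controls across replicates.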

Experiment [3] concerns A549 (lung adenocarcinoma). Nature of the experiment: Antiproliferative activity (CCK-8 cell viability), A549. To be noted: Homo sapiens, 72 h, read-out: Antiproliferative activity in cancerous cells, A549 (inhibition of cell growth); for inhibition at 3.3 µM: Compound concentration: 3.3 μM; for inhibition at 10 µM: Compound concentration: 10 μM. In outline:
as §1

A further experiment relates to HepG2 (liver cancer). In words: Antiproliferative activity (CCK-8 cell viability), HepG2. To be noted: Homo sapiens, 72 h; for inhibition at 3.3 µM: Compound concentration: 3.3 μM; for inhibition at 3.3 µM / inhibition at 10 µM: read-out: Antiproliferative activity in cancerous cells, HepG2 (inhibition of cell growth); for inhibition at 10 µM: Compound concentration: 10 μM. In outline: as §1

A further experiment relates to HeLa (cervical cancer). In words: Antiproliferative activity (CCK-8 cell viability), HeLa. To be noted: Homo sapiens, 72 h; for inhibition at 3.3 µM: Compound concentration: 3.3 μM; for inhibition at 3.3 µM / inhibition at 10 µM: read-out: Antiproliferative activity in cancerous cells, HELA (inhibition of cell growth); for inhibition at 10 µM: Compound concentration: 10 μM. In outline: as §1

Experiment [4] deals with alpha-smooth muscle actin (α-SMA). In words: Inhibition of TGF-β induced expression of alpha-smooth muscle actin (α-SMA) in CFSC cells (western blot). To be noted: compound at 10 μM, TGF-β (10 ng/mL), 24 hours, band intensity vs TGF-β only. In outline: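 Values are percent reduction of α-SMA band intensity relative to cells given TGF-β alone, quantified by Western blot densitometry with β-actin probed. Compound was applied at 10 μM alongside 10 ng/mL TGF-β to serum-free CFSC cultures for 24 h at 37 °C.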
(In western blotting, separated proteins are transferred to a membrane and probed.)

The test system of experiment [5] is MDA-MB-231 (breast cancer). In words: Antiproliferative activity (CCK-8 cell viability), MDA-MB-231. To be noted: Homo sapiens, 72 h, read-out: Antiproliferative activity in cancerous cells, MDA-MB-231 (inhibition of cell growth); for inhibition at 3.3 µM: Compound concentration: 3.3 μM; for inhibition at 10 µM: Compound concentration: 10 μM. In outline:
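In this CCK-8 viability assay, MDA-MB-231 cells maintained in Dulbecco's modified Eagle's medium containing 10% fetal bovine serum were placed in 96-well plates (2,000-5,000 cells/well) and treated with compound for 72 h at 37° C. A 4 h incubation with 10 μL CCK-8 followed, plates were read at 450 nm, and viability was expressed against DMSO vehicle wells across replicates.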

Where only a bound is given, the exact number is not on record here.

Regarding `COc1ccc2c(c1)/C(=C\c1cccc(COc3ccc(F)cc3)c1)C(C)=C2CC(=O)O` [B22, (Z)-2-(1-(3-((4-Fluorophenoxy)methyl)benzylidene)-6-methoxy-2-methyl-1H-inden-3-yl)acetic acid], the inhibition at 3.3 µM (in the experiment on SW480 (colon cancer); in experiment [1]; in experiment [2]; in experiment [3]; with HepG2 (liver cancer); with HeLa (cervical cancer)) was under 30% each time. Also, the inhibition at 3.3 µM in experiment [5] was 30 to 50%. Besides, the inhibition at 10 µM was under 30% in the experiment on SW480 (colon cancer); under 30% in experiment [1]; under 30% in experiment [2]; under 30% in experiment [3]; under 30% in the experiment on HepG2 (liver cancer); 30 to 50% in the experiment on HeLa (cervical cancer). The inhibition at 10 µM in experiment [4] was over 80%; in experiment [5] it was 30 to 50%.

Take `COc1ccc2c(c1)C(CC(=O)O)=C(C)/C2=C/c1cccc(COc2ccc(F)cc2)c1` [B24, (Z)-2-(1-(3-((4-Fluorophenoxy)methyl)benzylidene)-5-methoxy-2-methyl-1H-inden-3-yl)acetic acid]: the inhibition at 3.3 µM in the experiment with SW480 (colon cancer) is under 30%; in experiment [1], under 30%; in experiment [2] it was under 30%; in experiment [3], 30 to 50%; in the experiment with HepG2 (liver cancer), under 30%; in the experiment with HeLa (cervical cancer) it was under 30%. Besides, in experiment [5], the inhibition at 3.3 µM was in the range of 30 to 50%. The inhibition at 10 µM is under 30% in the experiment with SW480 (colon cancer); at least 50% in experiment [1]; under 30% in experiment [2]; at least 50% in experiment [3]; under 30% in the experiment with HepG2 (liver cancer); under 30% with HeLa (cervical cancer). For the same compound, the inhibition at 10 µM was over 80% in experiment [4] and at least 50% in experiment [5]. For the same compound, the inhibition at 30 µM in the experiment with HepG2 (liver cancer) (Compound concentration: 30 μM, read-out: Antiproliferative activity in cancerous cells, HepG2) was in the range of 30 to 50%.

In the case of `CC1=C(CC(=O)O)c2cc(F)ccc2/C1=C\c1ccccc1OCc1ccccc1` [B28, (Z)-2-(1-(2-(Benzyloxy)benzylidene)-5-fluoro-2-methyl-1H-inden-3-yl)acetic acid], the inhibition at 3.3 µM in the experiment on SW480 (colon cancer) was 30 to 50%; in experiment [1], under 30%; in experiment [2], at least 50%; in experiment [3], 30 to 50%; in the experiment with HepG2 (liver cancer) it was at least 50%; with HeLa (cervical cancer), at least 50%. Further, the inhibition at 3.3 µM in experiment [5] fell in the range of 30 to 50%. In addition, the inhibition at 10 µM in the experiment on SW480 (colon cancer) is at least 50%; in experiment [1] it was 30 to 50%; in experiment [2], at least 50%; in experiment [3], at least 50%; in the experiment with HepG2 (liver cancer) it was at least 50%; with HeLa (cervical cancer), at least 50%. Further, the figures for the inhibition at 10 µM in experiment [4] and in experiment [5] were over 80% and at least 50%, respectively.

In the case of `COc1ccc(/C=C2/C(C)=C(CC(=O)O)c3cc(F)ccc32)c(OCc2ccccc2)c1` [B29, (Z)-2-(1-(2-(Benzyloxy)-4-methoxybenzylidene)-5-fluoro-2-methyl-1H-inden-3-yl)acetic acid], the inhibition at 3.3 µM (with SW480 (colon cancer); in experiment [1]; in experiment [2]; in experiment [3]; with HepG2 (liver cancer); in the experiment on HeLa (cervical cancer)) was under 30% each time. Besides, the inhibition at 3.3 µM in experiment [5] is 30 to 50%. The inhibition at 10 µM is under 30% in the experiment with SW480 (colon cancer); at least 50% in experiment [1]; at least 50% in experiment [2]; under 30% in experiment [3]; at least 50% with HepG2 (liver cancer); at least 50% in the experiment with HeLa (cervical cancer). The inhibition at 10 µM was over 80% in experiment [4] and 30 to 50% in experiment [5].

As for `COc1ccc2c(c1)/C(=C\c1ccc(Oc3ccc(F)cc3)cc1)C(C)=C2CC(=O)O` [C1, (Z)-2-(1-(4-(4-Fluorophenoxy)benzylidene)-6-methoxy-2-methyl-1H-inden-3-yl)-acetic acid], the inhibition at 3.3 µM with SW480 (colon cancer) is at least 50%; in experiment [1] it was 30 to 50%; in experiment [2], 30 to 50%; in experiment [3], under 30%; in the experiment with HepG2 (liver cancer), under 30%; in the experiment with HeLa (cervical cancer) it was at least 50%. The inhibition at 3.3 µM in experiment [5] was at least 50%. The inhibition at 10 µM in the experiment with SW480 (colon cancer) is at least 50%; in experiment [1], at least 50%; in experiment [2], at least 50%; in experiment [3] it was under 30%; with HepG2 (liver cancer), under 30%; in the experiment with HeLa (cervical cancer), at least 50%. For the same compound, the figures for the inhibition at 10 µM in experiment [4] and in experiment [5] were over 80% and at least 50%, respectively.

Regarding `COc1ccc2c(c1)/C(=C\c1ccc(Oc3ccc(F)cc3)cc1)C=C2CC(=O)O` [C2, (Z)-2-(1-(4-(4-Fluorophenoxy)benzylidene)-6-methoxy-1H-inden-3-yl)acetic acid], the inhibition at 3.3 µM in the experiment on SW480 (colon cancer) was at least 50%; in experiment [1], under 30%; in experiment [2] it was 30 to 50%; in experiment [3], under 30%; with HepG2 (liver cancer), 30 to 50%; in the experiment with HeLa (cervical cancer), 30 to 50%. In experiment [5], the inhibition at 3.3 µM is at least 50%. In addition, the inhibition at 10 µM with SW480 (colon cancer) is 30 to 50%; in experiment [1], at least 50%; in experiment [2], at least 50%; in experiment [3] it was under 30%; in the experiment with HepG2 (liver cancer) it was 30 to 50%; in the experiment with HeLa (cervical cancer), at least 50%. Also, the values for the inhibition at 10 µM in experiment [4] and in experiment [5] were over 80% and at least 50%, respectively.

As for `CC1=C(CC(=O)O)c2ccc(F)cc2/C1=C\c1ccc(Oc2ccc(F)cc2)cc1` [C3, (Z)-2-(6-Fluoro-1-(4-(4-fluorophenoxy)benzylidene)-2-methyl-1H-inden-3-yl)-acetic acid], the inhibition at 3.3 µM is under 30% in the experiment with SW480 (colon cancer); under 30% in experiment [1]; at least 50% in experiment [2]; 30 to 50% in experiment [3]; at least 50% in the experiment with HepG2 (liver cancer); under 30% in the experiment on HeLa (cervical cancer). Further, the inhibition at 3.3 µM in experiment [5] is under 30%. Also, the inhibition at 10 µM in the experiment with SW480 (colon cancer) was under 30%; in experiment [1] it was 30 to 50%; in experiment [2] it was at least 50%; in experiment [3] it was 30 to 50%; in the experiment with HepG2 (liver cancer), at least 50%; in the experiment on HeLa (cervical cancer), under 30%. In addition, the inhibition at 10 µM in experiment [4] is under 30%; in experiment [5] it was 30 to 50%. For the same compound, the inhibition at 30 µM with SW480 (colon cancer) (Compound concentration: 30 μM, read-out: Antiproliferative activity in cancerous cells, SW480) is under 30%; in the experiment on HeLa (cervical cancer) (Compound concentration: 30 μM, read-out: Antiproliferative activity in cancerous cells, HELA), under 30%.

The values above are taken from patent US20260184663A1, “INDENE COMPOUNDS, PHARMACEUTICAL COMPOSITIONS THEREOF, AND THEIR THERAPEUTIC APPLICATIONS” (NucMito Pharmaceuticals co. Ltd., priority 2022, published 2026).
